Experimental data published in the supplement of paper PMC8671470.

Experiments:
Settings in all cases: 72 h
BV-173 [1] = system: BV-173
Summary of the method: (§1)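 The IC50 was read from log-logistic dose–response fits. Fifteen myeloid leukaemia lines were exposed for 72 h at 37 °C with 5% CO2 to five tenfold doses from 1 to 10,000 nM in duplicate. ATP luminescence, normalised to vehicle and to a 10 µM positive control, was fitted with four parameters.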

HEL [2] = system: HEL
Summary of the method: as §1

HL-60 [3] = system: HL-60
Summary of the method: as §1

K-562 [4] = system: K-562
Summary of the method: as §1

KCL-22 [5] = system: KCL-22
Summary of the method: as §1

KG-1 [6] = system: KG-1
Summary of the method: as §1

KU-812 [7] = system: KU-812
Summary of the method: as §1

LAMA-84 [8] = system: LAMA-84
Summary of the method: as §1

ML-2 [9] = system: ML-2
Summary of the method: as §1

MOLM-13 [10] = system: MOLM-13
Summary of the method: as §1

MV4-11 [11] = system: MV4-11
Summary of the method: as §1

Mono-Mac-6 [12] = system: Mono-Mac-6
Summary of the method: as §1

NOMO-1 [13] = system: NOMO-1
Summary of the method: as §1

SHI-1 [14] = system: SHI-1
Summary of the method: as §1

THP-1 [15] = system: THP-1
Summary of the method: as §1

BV-173 [16] = assay: cell viability (% survival relative to DMSO control, bortezomib = 0%); higher = less cytotoxic
Summary of the method: (§2)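 Percent survival figures are means of duplicate wells. They were obtained by CellTiter-Glo luminescence after 10 AML and 5 CML cell lines spent 72 h at 37 °C with 5% CO2 in 384-well plates with compounds at 1, 10, 100, 1000 or 10000 nM. Vehicle was set to 100% and a 10 µM positive control to 0%.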

HEL [17] = assay: as above
Summary of the method: as §2

HL-60 [18] = assay: as above
Summary of the method: as §2

K-562 [19] = assay: as above
Summary of the method: as §2

KCL-22 [20] = assay: as above
Summary of the method: as §2

KG-1 [21] = assay: as above
Summary of the method: as §2

KU-812 [22] = assay: as above
Summary of the method: as §2

LAMA-84 [23] = assay: as above
Summary of the method: as §2

ML-2 [24] = assay: as above
Summary of the method: as §2

MOLM-13 [25] = assay: as above
Summary of the method: as §2

MV4-11 [26] = assay: as above
Summary of the method: as §2

Mono-Mac-6 [27] = assay: as above
Summary of the method: as §2

NOMO-1 [28] = assay: as above
Summary of the method: as §2

SHI-1 [29] = assay: as above
Summary of the method: as §2

THP-1 [30] = assay: as above
Summary of the method: as §2

Cc1c2c(=O)n(-c3ccccc3Cl)[nH]c2cc(=O)n1Cc1ccccn1
Settings	IC50 (cell viability) [µM]
BV-173 [1]	> 10
HEL [2]	> 10
HL-60 [3]	> 10
K-562 [4]	6.52
KCL-22 [5]	> 10
KG-1 [6]	> 10
KU-812 [7]	> 10
LAMA-84 [8]	> 10
ML-2 [9]	> 10
MOLM-13 [10]	2.76
MV4-11 [11]	7.5
Mono-Mac-6 [12]	> 10
NOMO-1 [13]	> 10
SHI-1 [14]	> 10
THP-1 [15]	> 10

cell viability [%]
Settings	1 nM	10 nM	100 nM	1000 nM	10000 nM
BV-173 [16]	98	104	94.6	95.5	81.4
HEL [17]	77.9	114	88.2	103	106
HL-60 [18]	71	96.2	94.5	90.8	105
K-562 [19]	109	92.5	89.3	77.7	54
KCL-22 [20]	60.5	119	84.4	94.6	106
KG-1 [21]	92.4	105	89.6	102	104
KU-812 [22]	88	101	92	100	98.1
LAMA-84 [23]	93.8	108	100	99.9	99.9
ML-2 [24]	86.5	112	95.4	98.6	101
MOLM-13 [25]	84.7	101	96.7	71.4	38.5
MV4-11 [26]	101	107	89.7	71.9	59.2
Mono-Mac-6 [27]	89	109	96	103	99.5
NOMO-1 [28]	102	111	95.8	100	98.3
SHI-1 [29]	84.3	103	95.7	80.8	75.9
THP-1 [30]	95.8	113	99.1	94.2	96.6

CO[C@H]1C[C@@H]2CC[C@@H](C)[C@@](O)(O2)C(=O)C(=O)N2CCCC[C@H]2C(=O)O[C@H]([C@H](C)C[C@@H]2CC[C@@H](OC(=O)C(C)(CO)CO)[C@H](OC)C2)CC(=O)[C@H](C)/C=C(\C)[C@@H](O)[C@@H](OC)C(=O)[C@H](C)C[C@H](C)/C=C/C=C/C=C/1C [Temsirolimus]
Settings	IC50 (cell viability) [µM]
BV-173 [1]	0.0039
HEL [2]	1.15
HL-60 [3]	0.148
K-562 [4]	0.00535
KCL-22 [5]	0.0133
KG-1 [6]	0.00205
KU-812 [7]	0.00111
LAMA-84 [8]	0.0208
ML-2 [9]	2.59
MOLM-13 [10]	0.00198
MV4-11 [11]	0.0611
Mono-Mac-6 [12]	0.00487
NOMO-1 [13]	4.42
SHI-1 [14]	0.0283
THP-1 [15]	0.0539

cell viability [%]
Settings	1 nM	10 nM	100 nM	1000 nM	10000 nM
BV-173 [16]	96.5	54.8	57.6	45.7	39.5
HEL [17]	101	85.3	77.3	65.2	46.3
HL-60 [18]	101	96.8	90	73.4	73
K-562 [19]	94.8	58.4	47.2	44.7	33.5
KCL-22 [20]	95.8	58.5	47.8	32.5	23.6
KG-1 [21]	80.8	47.2	46.5	39.2	33.6
KU-812 [22]	71.8	42.9	44.7	38.8	36.1
LAMA-84 [23]	90.6	63.2	65	49.2	40.9
ML-2 [24]	84.3	71.5	70.4	60.3	38.2
MOLM-13 [25]	78.5	41.6	40.9	29.8	30.6
MV4-11 [26]	89.6	63.6	62.3	53.2	37.3
Mono-Mac-6 [27]	99.2	49.4	48	35.1	38
NOMO-1 [28]	79.9	67.5	76.8	60.9	52.9
SHI-1 [29]	93.3	71.2	80.4	58.8	59.3
THP-1 [30]	91.6	75	76.8	57.3	55.6

C[C@H]1c2cccc(O)c2C(=O)C2C(=O)[C@]3(O)C(=O)C(C(N)=O)C(=O)[C@@H](N(C)C)[C@@H]3[C@@H](O)[C@@H]21 (stereo not given in full) [Doxycycline]
Settings	IC50 (cell viability) [µM]
BV-173 [1]	> 10
HEL [2]	> 10
HL-60 [3]	> 10
K-562 [4]	9.29
KCL-22 [5]	8.54
KG-1 [6]	> 10
KU-812 [7]	> 10
LAMA-84 [8]	> 10
ML-2 [9]	8.51
MOLM-13 [10]	> 10
MV4-11 [11]	> 10
Mono-Mac-6 [12]	> 10
NOMO-1 [13]	> 10
SHI-1 [14]	> 10
THP-1 [15]	> 10

cell viability [%]
Settings	1 nM	10 nM	100 nM	1000 nM	10000 nM
BV-173 [16]	107	87.9	99.2	102	69.7
HEL [17]	120	107	90.5	108	75.3
HL-60 [18]	123	100	118	111	67.4
K-562 [19]	112	97	97.3	101	46.2
KCL-22 [20]	130	69.3	93.6	109	41.6
KG-1 [21]	106	91.7	95.9	95.1	87.9
KU-812 [22]	111	88.3	105	102	74.4
LAMA-84 [23]	101	95.3	106	92	66.1
ML-2 [24]	111	103	97.9	90	45.9
MOLM-13 [25]	124	114	92.7	104	74.5
MV4-11 [26]	110	105	94.2	97	50.9
Mono-Mac-6 [27]	103	98.6	109	94.7	90.4
NOMO-1 [28]	103	92	104	103	90.3
SHI-1 [29]	111	98	112	105	90.8
THP-1 [30]	95	95.9	100	105	106
